{"source": "patent US20250059185A1", "about": "(Hoffmann-La Roche Inc., priority 2021, published 2025)"}
{"biological_target": "MAGL (Homo sapiens (Human), UniProt Q99685)", "sequence (Q99685 whole entry, species assumed)": "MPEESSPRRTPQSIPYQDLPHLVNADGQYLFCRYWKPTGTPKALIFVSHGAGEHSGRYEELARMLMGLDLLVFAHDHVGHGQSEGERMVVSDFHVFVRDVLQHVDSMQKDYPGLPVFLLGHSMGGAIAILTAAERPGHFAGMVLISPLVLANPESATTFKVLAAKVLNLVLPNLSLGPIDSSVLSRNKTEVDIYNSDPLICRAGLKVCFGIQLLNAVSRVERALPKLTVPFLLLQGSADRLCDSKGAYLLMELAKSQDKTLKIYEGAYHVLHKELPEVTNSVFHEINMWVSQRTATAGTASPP", "test": "2-AG assay (MAGL inhibitory activity, hydrolysis of 2-arachidonoylglycerol followed by mass spectrometry)", "type": "biochemical", "conditions": "50 pM MAGL protein, 15 min pre-incubation, 30 min incubation at RT", "excerpt": "Compounds of formula (II) were profiled for MAGL inhibitory activity by determining the enzymatic activity by following the hydrolysis of the natural substrate 2-arachidonoylglycerol (2-AG) resulting in arachidonic acid, which can be followed by mass spectrometry. This assay is hereinafter abbreviated “2-AG assay”.\nCompounds of formula (II) were profiled for MAGL inhibitory activity by determining the enzymatic activity by following the hydrolysis of the natural substrate 2-arachidonoylglycerol (2-AG) resulting in arachidonic acid, which can be followed by mass spectrometry. This assay is hereinafter abbreviated “2-AG assay”. The 2-AG assay was carried out in 384 well polypropylene assay plates. Compound dilutions were made in 100% DMSO in a polypropylene plate in 3-fold dilution steps to give a final concentration range in the assay from 12.5 μM to 0.8 pM. Compound dilutions were added to MAGL protein in assay buffer (50 mM TRIS, 1 mM EDTA, 0.01% (v/v) Tween-20, 2.5% (v/v) DMSO). After shaking, the plate was incubated for 15 min at RT. To start the reaction, 2-arachidonoylglycerol in assay buffer was added. The final concentrations in the assay was 50 pM for MAGL protein and […] 2-arachidonoylglyerol. After shaking and 30 min incubation at RT, the reaction was quenched by the addition of two assay volumes of acetonitrile containing 4 μM of d8-arachidonic acid. The amount of arachidonic acid formed was traced by an online SPE system (Agilent Rapidfire) coupled to a triple quadrupole mass spectrometer. A C18 SPE cartridge (Agilent G9205A) was used in an acetonitrile/water liquid setup. The mass spectrometer was operated in negative electrospray mode following the mass transitions 303.1→259.1 for arachidonic acid and 311.1→267.0 for d8-arachidonic acid. The activity of the compounds was calculated based on the ratio of intensities [arachidonic acid/d8-arachidonic acid].", "units": {"IC50": "nM"}}
{"molecule": "C[C@H]1c2nn(C)c(-c3cc(F)cc(F)c3)c2CCN1C(=O)c1cc(F)cc(-c2c[nH]c(C#N)c2)c1Cl", "note": "[Example 36, 4-[2-Chloro-3-[(7S)-3-(3,5-difluorophenyl)-2,7-dimethyl-5,7-dihydro-4H-pyrazolo[3,4-c]pyridine-6-carbonyl]-5-fluoro-phenyl]-1H-pyrrole-2-carbonitrile]", "IC50": 17}
{"molecule": "CC1c2nn(C)c(-c3cc(F)cc(F)c3)c2CCN1C(=O)c1ccnc(OCC2CNC(=O)O2)c1Cl", "note": "(centres unmarked) [Example 41, 5-[[3-Chloro-4-[3-(3,5-difluorophenyl)-2,7-dimethyl-5,7-dihydro-4H-pyrazolo[3,4-c]pyridine-6-carbonyl]-2-pyridyl]oxymethyl]oxazolidin-2-one]", "IC50": 53}
{"molecule": "C[C@H]1c2nn(C)c(-c3cc(F)cc(F)c3)c2CCN1C(=O)c1ccnc(OCC2CNC(=O)O2)c1Cl", "note": "(stereo partly drawn) [Example 42, 5-[[3-Chloro-4-[(7S)-3-(3,5-difluorophenyl)-2,7-dimethyl-5,7-dihydro-4H-pyrazolo[3,4-c]pyridine-6-carbonyl]-2-pyridyl]oxymethyl]oxazolidin-2-one]", "IC50": 26}
{"molecule": "C[C@@H]1c2nn(C)c(-c3cc(F)cc(F)c3)c2CCN1C(=O)c1ccnc(OCC2CNC(=O)O2)c1Cl", "note": "(stereo partly drawn) [Example 43, 5-[[3-Chloro-4-[(7R)-3-(3,5-difluorophenyl)-2,7-dimethyl-5,7-dihydro-4H-pyrazolo[3,4-c]pyridine-6-carbonyl]-2-pyridyl]oxymethyl]oxazolidin-2-one]", "IC50": 1340}
{"molecule": "CC1c2nn(C)c(-c3cc(F)cc(F)c3)c2CCN1C(=O)c1ccc(CCC2CNC(=O)C2)cc1Cl", "note": "(centres unmarked) [Example 44, 4-[2-[3-Chloro-4-[3-(3,5-difluorophenyl)-2,7-dimethyl-5,7-dihydro-4H-pyrazolo[3,4-c]pyridine-6-carbonyl]phenyl]ethyl]pyrrolidin-2-one]", "IC50": 261}
{"molecule": "C[C@H]1c2nn(C)c(-c3cc(F)cc(F)c3)c2CCN1C(=O)c1ccc(CCC2CNC(=O)C2)cc1Cl", "note": "(stereo partly drawn) [Example 45, 4-[2-[3-Chloro-4-[(7S)-3-(3,5-difluorophenyl)-2,7-dimethyl-5,7-dihydro-4H-pyrazolo[3,4-c]pyridine-6-carbonyl]phenyl]ethyl]pyrrolidin-2-one]", "IC50": 99}
{"molecule": "C[C@@H]1c2nn(C)c(-c3cc(F)cc(F)c3)c2CCN1C(=O)c1ccc(CCC2CNC(=O)C2)cc1Cl", "note": "(stereo partly drawn) [Example 48, 4-[2-[3-Chloro-4-[(7R)-3-(3,5-difluorophenyl)-2,7-dimethyl-5,7-dihydro-4H-pyrazolo[3,4-c]pyridine-6-carbonyl]phenyl]ethyl]pyrrolidin-2-one]", "IC50": 1680}
{"molecule": "C[C@H]1c2nn(C)c(-c3cc(F)cc(F)c3)c2CCN1C(=O)c1cc(F)cc(-c2c[nH]c(C#N)c2)c1", "note": "[Example 53, 4-[3-[(7S)-3-(3,5-Difluorophenyl)-2,7-dimethyl-5,7-dihydro-4H-pyrazolo[3,4-c]pyridine-6-carbonyl]-5-fluorophenyl]-1H-pyrrole-2-carbonitrile]", "IC50": 3}
{"molecule": "CC1c2nn(C)c(-c3cc(Cl)cc(C4(NS(C)(=O)=O)CC4)c3)c2CCN1C(=O)c1cc(F)cc(-c2ccc(=O)[nH]c2)c1Cl", "note": "(centres unmarked) [Example 55, N-[1-[3-Chloro-5-[6-[2-chloro-5-fluoro-3-(6-oxo-1H-pyridin-3-yl)benzoyl]-2,7-dimethyl-5,7-dihydro-4H-pyrazolo[3,4-c]pyridin-3-yl]phenyl]cyclopropyl]methanesulfonamide]", "IC50": 7}
{"molecule": "C=S(N)(=O)c1cc(Cl)cc(-c2c3c(nn2C)C(C)N(C(=O)c2cc(F)cc(-c4ccc(=O)[nH]c4)c2Cl)CC3)c1", "note": "(centres unmarked) [Example 56]", "IC50": 12}
{"molecule": "CC1c2nn(C)c(-c3cc(Cl)cc(C4(NS(C)(=O)=O)CC4)c3)c2CCN1C(=O)c1cc(F)cc(-c2cc[nH]c(=O)c2)c1Cl", "note": "(centres unmarked) [Example 57, N-[1-[3-Chloro-5-[6-[2-chloro-5-fluoro-3-(2-oxo-1H-pyridin-4-yl)benzoyl]-2,7-dimethyl-5,7-dihydro-4H-pyrazolo[3,4-c]pyridin-3-yl]phenyl]cyclopropyl]methanesulfonamide]", "IC50": 115}
{"molecule": "CC1c2nn(C)c(-c3cncc(C(F)(F)F)n3)c2CCN1C(=O)c1cc(F)cc(N2CC(S(N)(=O)=O)C2)c1Cl", "note": "(centres unmarked) [Example 58, 1-[2-Chloro-3-[2,7-dimethyl-3-[6-(trifluoromethyl)pyrazin-2-yl]-5,7-dihydro-4H-pyrazolo[3,4-c]pyridine-6-carbonyl]-5-fluoro-phenyl]azetidine-3-sulfonamide]", "IC50": 304}
{"molecule": "CC1c2nn(C)c(-c3cc(Cl)cc(S(N)(=O)=O)c3)c2CCN1C(=O)c1ncn(-c2ccc[nH]c2=O)n1", "note": "(centres unmarked) [Example 59, 3-Chloro-5-[2,7-dimethyl-6-[1-(2-oxo-1H-pyridin-3-yl)-1,2,4-triazole-3-carbonyl]-5,7-dihydro-4H-pyrazolo[3,4-c]pyridin-3-yl]benzenesulfonamide]", "IC50": 1070}
{"molecule": "CC1c2nn(C)c(-c3cc(Cl)cc(C4(S(C)(=O)=O)CC4)c3)c2CCN1C(=O)c1cc(F)cc(-c2ccc(=O)[nH]c2)c1Cl", "note": "(centres unmarked) [Example 60, 5-[2-Chloro-3-[3-[3-chloro-5-(1-methylsulfonylcyclopropyl)phenyl]-2,7-dimethyl-5,7-dihydro-4H-pyrazolo[3,4-c]pyridine-6-carbonyl]-5-fluoro-phenyl]-1H-pyridin-2-one]", "IC50": 138}
{"molecule": "CC1c2nn(C)c(-c3cc(Cl)cc(S(N)(=O)=O)c3)c2CCN1C(=O)c1cc(F)cc(-c2nc[nH]n2)c1Cl", "note": "(centres unmarked) [Example 61, 3-Chloro-5-[6-[2-chloro-5-fluoro-3-(1H-1,2,4-triazol-3-yl)benzoyl]-2,7-dimethyl-5,7-dihydro-4H-pyrazolo[3,4-c]pyridin-3-yl]benzenesulfonamide]", "IC50": 77}
{"molecule": "C[C@H]1c2nn(C)c(-c3cc(Cl)cc(S(N)(=O)=O)c3)c2CCN1C(=O)c1ncn(-c2ccc[nH]c2=O)n1", "note": "[Example 62, 3-Chloro-5-[(7S)-2,7-dimethyl-6-[1-(2-oxo-1H-pyridin-3 yl)-1,2,4-triazole-3-carbonyl]-5,7-dihydro-4H-pyrazolo[3,4-c]pyridin-3-yl]benzenesulfonamide]", "IC50": 326}
{"molecule": "C[C@@H]1c2nn(C)c(-c3cc(Cl)cc(S(N)(=O)=O)c3)c2CCN1C(=O)c1ncn(-c2ccc[nH]c2=O)n1", "note": "[Example 63, 3-Chloro-5-[(7R)-2,7-dimethyl-6-[1-(2-oxo-1H-pyridin-3-yl)-1,2,4-triazole-3-carbonyl]-5,7-dihydro-4H-pyrazolo[3,4-c]pyridin-3-yl]benzenesulfonamide]", "IC50": 552}
{"molecule": "C[C@H]1c2nn(C)c(-c3cncc(C(F)(F)F)n3)c2CCN1C(=O)c1cc(F)cc(-c2c[nH]c(C#N)c2)c1Cl", "note": "[Example 64, 4-[2-chloro-3-[(7S)-2,7-dimethyl-3-[6-(trifluoromethyl)pyrazin-2-yl]-5,7-dihydro-4H-pyrazolo[3,4-c]pyridine-6-carbonyl]-5-fluoro-phenyl]-1H-pyrrole-2-carbonitrile]", "IC50": 13}
{"molecule": "C[C@H]1c2nn(C)c(-c3cncc(C(F)(F)F)n3)c2CCN1C(=O)c1cc(F)cc(N2CC3(C2)CS(=O)(=O)C3)c1Cl", "note": "[Example 65, [2-chloro-3-(2,2-dioxo-2λ^6-thia-6-azaspiro[3.3]heptan-6-yl)-5-fluoro-phenyl]-[(7S)-2,7-dimethyl-3-[6-(trifluoromethyl)pyrazin-2-yl]-5,7-dihydro-4H-pyrazolo[3,4-c]pyridin-6-yl]methanone]", "IC50": 2830}
{"molecule": "C[C@@H]1c2nn(C)c(-c3cncc(C(F)(F)F)n3)c2CCN1C(=O)c1cc(F)cc(N2CC3(C2)CS(=O)(=O)C3)c1Cl", "note": "[Example 66, [2-chloro-3-(2,2-dioxo-2λ^6-thia-6-azaspiro[3.3]heptan-6-yl)-5-fluoro-phenyl]-[(7R)-2,7-dimethyl-3-[6-(trifluoromethyl)pyrazin-2-yl]-5,7-dihydro-4H-pyrazolo[3,4-c]pyridin-6-yl]methanone]", "IC50": 3240}
{"molecule": "C[C@H]1c2nn(C)c(-c3cncc(C(F)(F)F)n3)c2CCN1C(=O)c1ncn(-c2ccc[nH]c2=O)n1", "note": "[Example 67, 3-[3-[(7S)-2,7-dimethyl-3-[6-(trifluoromethyl)pyrazin-2-yl]-5,7-dihydro-4H-pyrazolo[3,4-c]pyridine-6-carbonyl]-1,2,4-triazol-1-yl]-1H-pyridin-2-one]", "IC50": 4220}
{"molecule": "C[C@H]1c2nn(C)c(-c3cncc(C(F)(F)F)n3)c2CCN1C(=O)c1cc(F)cc(-c2ccc(=O)[nH]c2)c1Cl", "note": "[Example 68, 5-[2-chloro-3-[(7S)-2,7-dimethyl-3-[6-(trifluoromethyl)pyrazin-2-yl]-5,7-dihydro-4H-pyrazolo[3,4-c]pyridine-6-carbonyl]-5-fluoro-phenyl]-1H-pyridin-2-one]", "IC50": 4290}
{"molecule": "COCCOc1cc(Cl)cc(-c2c3c(nn2C)[C@H](C)N(C(=O)c2cccc(OC)c2Cl)CC3)c1", "note": "[Example 69, [(7S)-3-[3-chloro-5-(2-methoxyethoxy)phenyl]-2,7-dimethyl-5,7-dihydro-4H-pyrazolo[3,4-c]pyridin-6-yl]-(2-chloro-3-methoxy-phenyl)methanone]", "IC50": 3}
